In paper PMC10897196, “Structure–activity characteristics of phenylalanine analogs selectively transported by L-type amino acid transporter 1 (LAT1)” (Scientific Reports, 2024):
“And” between values parts separate entries of the source, which are not always exact repeats. Equal entries are not always repeated.

How the values were obtained:
human LAT1 [1] = target: T1, human LAT1 (Homo sapiens, UniProt Q01650); assay: Inhibition of L-[14C]leucine uptake in HEK293-hLAT1 cells; format: cell-based; conditions: for Inhibition of LAT1-mediated L-[14C]leucine uptake (in words, rank order): 1 μM L-[14C]leucine, 1 min, compounds at 10, 30, 100 μM
T1 construct: expressed in transfected cells
Description: (§1) In this study, we used the HEK293 cells stably expressing human LAT1 or human LAT2, which form a heterodimeric complex with endogenous 4F2hc (CD98hc), required for plasma membrane localization. We first explored the impact of halogen group positioning in the benzene ring of Phe (Fig. 1) on its interaction with LAT1 and LAT2. […] We conducted inhibition experiments to measure the uptake of L-[^14C]leucine by LAT1 and L-[^14C]alanine by LAT2 in the presence or absence of Phe derivatives with an iodo group at position 2, 3, or 4 in the benzene ring.
(§2) The inhibition experiments were performed as described previously. HEK293-hLAT1 (1.5 × 10^5 cells/well) or HEK293-hLAT2 (2 × 10^5 cells/well) cells were plated onto poly-D-lysine-coated 24-well plates (Corning, New York, USA). Following a 2-day culture period, the uptake of 1 μM L-[^14C]leucine or L-[^14C]alanine was measured for 1 min in the absence or presence of non-radiolabeled test compounds at concentrations of 10, 30, and 100 μM. Radioactivity was quantified using a β-scintillation counter (LSC-3100; Aloka, Tokyo, Japan), and protein concentrations were determined with a Micro BCA Protein Assay Kit (Thermo Fisher Scientific, Rockford, IL). To calculate Ki values, the concentration-dependent uptake of L-[^14C]leucine or L-[^14C]alanine was analyzed in the presence and absence of test compounds[49]. The data were plotted against substrate concentration and fitted to Michaelis–Menten kinetics. Ki values were derived using nonlinear regression analysis with the enzyme kinetics inhibition module in GraphPad Prism software (Version 10.0.2; GraphPad Software Inc., San Diego, CA, USA).

[2] = Tissue accumulation (plasma, tumor, small intestine) in B16-F10 tumor-bearing mice, HPLC; format: in vivo
Procedure: Female C57BL/6J mice were subcutaneously injected with 2 × 10^6 B16-F10 cells. The cells were prepared in a mixture containing a 1:1 volume ratio of phosphate-buffered saline (PBS) and Matrigel (Corning, New York, USA), with the total injection volume being 200 μL, administered into the dorsal flank. Tumor growth was measured bi-daily using calipers until tumors reached a size of approximately 300 ~ 500 mm^3, at which point they were deemed palpable. […] Blood samples were collected at 30 and 60 min post-administration. Then both the tumors and small intestines were excised and weighed for subsequent analysis by HPLC.
(§3) HPLC analyses were conducted as previously described. In brief, tumors and small intestines were homogenized in ice-cold PBS (3 times the tissue weight, v/w). The homogenates were then centrifuged at 15,000 ×g for 40 min at 4 °C. A 10 μL aliquot of the tissue supernatant or plasma was mixed with 190 μL of acetonitrile (MeCN) to precipitate proteins. This mixture was subsequently centrifuged at 15,000 ×g for 30 min at 4 °C. The resulting supernatant (100 μL) was dried, and the residue was reconstituted in 20 μL of 400 mM sodium borate (pH 8.0). Finally, 5 μL of 40 mM 4-fluoro-7-nitro-2,1,3-benzoxadiazole (NBD-F) in MeCN was added for fluorescence derivatization. HPLC analysis was carried out using a NANOSPACE SI-2 HPLC system (Shiseido, Tokyo, Japan) equipped with a fluorescence detector. […] The mobile phase consisted of MeCN, water, and trifluoroacetic acid (TFA) in a 27.5:72.5:0.05 (v/v/v) ratio, delivered at a flow rate of 200 μL/min.

[3] = Plasma concentration-time profile in normal mice after intravenous administration; format: in vivo; conditions: C57BL/6J mice, i.v., 15, 30, 60, 120 min; 2-F-Tyr 15.6 mg/kg, bicyclic-Phe 15 mg/kg
Procedure: The blood samples were collected at 15, 30, 60, and 120 min post-administration into lithium heparin-coated tubes (BD, New Jersey, USA) and then centrifuged at 1,500 ×g for 10 min at 23 °C. The resulting plasma was stored at −80 °C pending analysis by HPLC.
as §3

human LAT2 [4] = target: T2, human LAT2 (Homo sapiens, UniProt Q9UHI5); assay: Inhibition of L-[14C]alanine uptake in HEK293-hLAT2 cells; format: cell-based; conditions: for Inhibition of LAT2-mediated L-[14C]alanine uptake (in words, rank order): 1 μM L-[14C]alanine, 1 min, compounds at 10, 30, 100 μM
T2 construct: expressed in transfected cells
T2 sequence (Q9UHI5 1-535): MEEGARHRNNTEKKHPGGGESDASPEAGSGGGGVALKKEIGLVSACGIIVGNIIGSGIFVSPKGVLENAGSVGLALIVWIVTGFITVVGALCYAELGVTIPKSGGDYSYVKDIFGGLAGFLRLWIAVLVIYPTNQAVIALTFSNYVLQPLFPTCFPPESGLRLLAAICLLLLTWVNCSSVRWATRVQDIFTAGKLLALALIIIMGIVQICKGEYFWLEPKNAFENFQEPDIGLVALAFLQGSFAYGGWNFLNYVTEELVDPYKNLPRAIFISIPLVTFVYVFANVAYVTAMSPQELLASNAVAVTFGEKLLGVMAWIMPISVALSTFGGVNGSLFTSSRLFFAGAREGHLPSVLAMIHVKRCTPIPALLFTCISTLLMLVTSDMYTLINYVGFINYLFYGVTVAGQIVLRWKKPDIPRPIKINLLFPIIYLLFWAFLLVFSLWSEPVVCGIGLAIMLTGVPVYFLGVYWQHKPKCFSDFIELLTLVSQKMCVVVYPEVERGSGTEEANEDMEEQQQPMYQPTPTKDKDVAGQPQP
T2 sequence (P08195 1-529 partner): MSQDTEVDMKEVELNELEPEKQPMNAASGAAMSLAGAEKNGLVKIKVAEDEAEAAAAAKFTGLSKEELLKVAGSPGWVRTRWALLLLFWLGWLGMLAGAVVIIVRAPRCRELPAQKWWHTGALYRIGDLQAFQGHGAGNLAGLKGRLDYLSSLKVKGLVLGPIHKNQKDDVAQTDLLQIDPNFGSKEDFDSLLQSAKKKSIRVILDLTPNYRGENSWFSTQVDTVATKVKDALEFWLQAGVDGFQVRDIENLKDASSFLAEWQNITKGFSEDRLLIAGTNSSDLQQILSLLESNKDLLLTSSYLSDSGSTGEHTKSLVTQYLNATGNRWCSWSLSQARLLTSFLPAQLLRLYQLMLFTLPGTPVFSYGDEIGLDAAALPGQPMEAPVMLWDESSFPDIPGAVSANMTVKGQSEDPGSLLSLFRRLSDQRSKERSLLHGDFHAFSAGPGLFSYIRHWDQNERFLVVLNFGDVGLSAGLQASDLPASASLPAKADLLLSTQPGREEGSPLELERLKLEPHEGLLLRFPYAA
Description: as §1, §2

human LAT1 [5] = target: T1, human LAT1; assay: Efflux of pre-loaded L-[14C]leucine from HEK293-hLAT1 cells induced by extracellular compounds; format: cell-based; conditions: 1 min
Procedure: (§4) We evaluated the efflux of pre-loaded L-[^14C]leucine from LAT1 and pre-loaded L-[^14C]alanine from LAT2 induced by extracellularly applied compounds.
(§5) Efflux experiments were performed as described previously. Cells cultured 48 h were pre-loaded with 5 μM L-[^14C]leucine or L-[^14C]alanine for 10 min at 37 °C. The cells were then washed, and the efflux was induced by incubating cells for 1 min in either the absence or presence of non-radiolabeled test compounds at indicated concentrations. The efflux time of 1 min fell within the linear range of time-dependent substrate efflux mediated by LAT1 and LAT2 (Supplementary Fig. S2). Following incubation, the medium was collected and radioactivity was measured in both the medium and the cells. Efflux was quantified as the percentage of radioactivity released into the medium, calculated using the formula: radioactivity of medium/(radioactivity of medium + radioactivity of cells) × 100%.
(§6) The kinetic parameters for the efflux of L-[^14C]leucine or L-[^14C]alanine induced by various concentrations of extracellularly-applied test compounds were analyzed. The baseline efflux values—those obtained in the absence of test compounds—were subtracted from the values measured in the presence of the compounds. The resultant data were fitted to Michaelis–Menten kinetics to determine the Km and Vmax by nonlinear regression analysis using “enzyme kinetics-velocity as a function of substrate” module within GraphPad Prism software.

human LAT2 [6] = target: T2, human LAT2; assay: Efflux of pre-loaded L-[14C]alanine from HEK293-hLAT2 cells induced by extracellular compounds; format: cell-based; conditions: 1 min
Procedure: as §4, §5, §6

[7] = LAT1, L-[14C]leucine efflux, mean ± S.E.M., n = 3

T1 sequence (Q01650 whole entry, one chain of several): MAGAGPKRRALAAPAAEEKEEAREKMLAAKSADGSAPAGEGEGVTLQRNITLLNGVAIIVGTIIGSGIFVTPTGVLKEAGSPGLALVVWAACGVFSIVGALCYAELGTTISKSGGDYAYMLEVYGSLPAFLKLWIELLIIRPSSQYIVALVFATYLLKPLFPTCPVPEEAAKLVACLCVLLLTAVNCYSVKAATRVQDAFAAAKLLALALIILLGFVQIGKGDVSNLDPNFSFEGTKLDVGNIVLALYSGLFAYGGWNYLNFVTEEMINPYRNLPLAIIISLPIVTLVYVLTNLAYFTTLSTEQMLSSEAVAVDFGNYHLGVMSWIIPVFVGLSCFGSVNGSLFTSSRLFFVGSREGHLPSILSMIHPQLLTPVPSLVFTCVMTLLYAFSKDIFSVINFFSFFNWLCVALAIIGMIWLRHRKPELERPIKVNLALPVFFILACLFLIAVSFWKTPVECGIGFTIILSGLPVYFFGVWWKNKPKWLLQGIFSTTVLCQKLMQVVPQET

SMILES	Inhibition of LAT1-mediated L-[14C]leucine uptake (in words, rank order) (human LAT1 [1])	Inhibition of LAT2-mediated L-[14C]alanine uptake (in words, rank order) (human LAT2 [4])	also measured
N[C@@H](Cc1ccccc1Br)C(=O)O [2-Br-Phe]	2-Cl-Phe < 2-Br-Phe		
N[C@@H](Cc1ccccc1Cl)C(=O)O [2-Cl-Phe]	Phe < 2-Cl-Phe		
N[C@@H](Cc1ccccc1F)C(=O)O [2-F-Phe]	2-F-Phe = Phe		
N[C@@H](Cc1ccc(O)cc1F)C(=O)O [2-F-Tyr, 2-Fluoro-L-tyrosine, reference compound]			Small intestine-to-plasma ratio (I/P) (in words) ([2]; 30 and 60 min after i.v., equimolar doses): considerably higher for 2-F-Tyr than for bicyclic-Phe; Concentration in tumor compared with plasma ([2]; i.v., normalized to tissue weight / plasma volume, 2-F-Tyr at 60 min): higher in the tumor than in plasma; Plasma concentration (in words) [3]: time-dependent decreases in plasma concentration
N[C@@H](Cc1ccccc1I)C(=O)O [2-I-Phe, 2-iodo-L-phenylalanine]	markedly inhibited and 2-Br-Phe < 2-I-Phe and inhibit	2-I-Phe = Phe	Ki (human LAT1 [1]; L-[14C]leucine uptake, HEK293-hLAT1, mean ± S.E.M., n = 3–4, read-out: Ki (μM) LAT1): 9.56 ± 1.67 µM; Ki ratio (LAT2/LAT1) (human LAT1 [1]; LAT1 selectivity, LAT2 Ki over LAT1 Ki): 9.16; Ki (human LAT2 [4]; L-[14C]alanine uptake, HEK293-hLAT2, mean ± S.E.M., n = 3–4, read-out: Ki (μM) LAT2): 87.6 ± 11.9 µM; Km (human LAT1 [5]; [7]): 2.79 ± 0.76 µM; Vmax of efflux (% radioactivity/min) (human LAT1 [5]; [7]): 7.62 ± 0.30 % radioactivity/min; LAT1-mediated L-[14C]leucine efflux induced (in words) (human LAT1 [5]; compounds at 10, 30, 100 μM): transported by LAT1 as substrates; Vmax of efflux (% radioactivity/min) (human LAT2 [6]; LAT2, L-[14C]alanine efflux, mean ± S.E.M., n = 3): 39.65 ± 0.44 % radioactivity/min; LAT2-mediated L-[14C]alanine efflux induced (in words) (human LAT2 [6]; compounds at 10, 30, 100 μM): comparable to that of Phe
N[C@@H](Cc1cccc(Br)c1)C(=O)O [3-Br-Phe, 3-Bromo-L-phenylalanine]	3-Cl-Phe < 3-Br-Phe	3-Cl-Phe < 3-Br-Phe	
N[C@@H](Cc1cccc(Cl)c1)C(=O)O [3-Cl-Phe]	3-F-Phe < 3-Cl-Phe	3-F-Phe < 3-Cl-Phe	
N[C@@H](Cc1cccc(F)c1)C(=O)O [3-F-Phe]	Phe < 3-F-Phe	Phe < 3-F-Phe	
